row,melting point,SMILES
1,89 to 90 °C,"Fc1ccc(/C=C/c2nc(COc3cccc(CCCn4ccnn4)c3)co2)c(F)c1 [Example 8, 1-{3-[3-({2-[(E)-2-(2,4-difluorophenyl)ethenyl]-1,3-oxazol-4-yl}methoxy)phenyl]propyl}-1H-1,2,3-triazole]"
2,108 to 109 °C,"Cc1ccc(/C=C/c2nc(COc3ccc(CCCCn4ccnc4CCO)cc3)co2)cc1 [Example 10, 2-[1-[4-[4-[[2-[(E)-2-(4-methylphenyl)ethenyl]-1,3-oxazol-4-yl]methoxy]phenyl]butyl]-1H-imidazol-2-yl]-1-ethanol]"
3,130 to 132 °C,"OCCc1nccn1CCCCc1ccc(OCc2coc(/C=C/c3ccc(F)cc3)n2)cc1 [Example 14, 2-(1-(4-[4-({2-[(E)-2-(4-fluorophenyl)ethenyl]-1,3-oxazol-4-yl}methoxy)phenyl]butyl)-1H-imidazol-2-yl)-1-ethanol]"
4,104 to 106 °C,OC[C@H](O)Cc1nccn1CCCCc1ccc(OCc2coc(/C=C/c3ccc(F)cc3F)n2)cc1 [Example 29]
5,93 to 95 °C,"OCCc1nccn1CCCCc1ccc(OCc2coc(/C=C/c3ccc(F)cc3F)n2)cc1 [Example 19, 2-[1-[4-[4-[[2-[(E)-2-(2,4-difluorophenyl)ethenyl]-1,3-oxazol-4-yl]methoxy]phenyl]butyl]-1H-imidazol-2-yl]-1-ethanol]"
6,123 to 125 °C,"OCC(O)Cc1nccn1CCCCc1ccc(OCc2coc(/C=C/c3c(F)cccc3F)n2)cc1 (stereo not shown) [Example 28, 3-[1-[4-[4-[[2-[(E)-2-(2,6-difluorophenyl)ethenyl]-1,3-oxazol-4-yl]methoxy]phenyl]butyl]-1H-imidazol-2-yl]-1,2-propanediol]"
7,94 to 96 °C,"OCCc1nccn1CCCc1ccc(OCc2coc(/C=C/c3ccc(F)cc3F)n2)cc1 [Example 20, 2-[1-[3-[4-[[2-[(E)-2-(2,4-difluorophenyl)ethenyl]-1,3-oxazol-4-yl]methoxy]phenyl]propyl]-1H-imidazol-2-yl]-1-ethanol]"
8,106 to 107 °C,OCCc1nccn1CCCCc1ccc(OCc2coc(/C=C/c3c(F)cccc3F)n2)cc1 [Example 21]
9,149 to 150 °C,"OCCc1nccn1CCCCc1ccc(OCc2coc(/C=C/c3ccc(Br)cc3)n2)cc1 [Example 16, 2-[1-[4-[4-[[2-[(E)-2-(4-bromophenyl)ethenyl]-1,3-oxazol-4-yl]methoxy]phenyl]butyl]-1H-imidazol-2-yl]-1-ethanol]"
10,115 to 117 °C,"Fc1ccc(/C=C/c2nc(COc3ccc(CCCCn4ccnn4)cc3)co2)c(F)c1 [Example 7, 1-{4-[4-({2-[(E)-2-(2,4-difluorophenyl)ethenyl]-1,3-oxazol-4-yl}methoxy)phenyl]butyl}-1H-1,2,3-triazole]"
11,94 to 95 °C,"CCc1ccc(/C=C/c2nc(COc3ccc(CCCCn4ccnc4CCO)cc3)co2)cc1 [Example 13, 2-[1-[4-[4-[[2-[(E)-2-(4-ethylphenyl)ethenyl]-1,3-oxazol-4-yl]methoxy]phenyl]butyl]-1H-imidazol-2-yl]-1-ethanol]"
12,124 to 125 °C,"Fc1ccc(/C=C/c2nc(COc3ccc(CCCCn4ccnn4)cc3)co2)cc1 [Example 2, 1-{4-[4-({2-[(E)-2-(4-fluorophenyl)ethenyl]-1,3-oxazol-4-yl}methoxy)phenyl]butyl}-1H-1,2,3-triazole]"
13,154 to 155 °C,Cc1ccc(/C=C/c2nc(COc3ccc(CCCCn4ccnn4)cc3)co2)cc1 [Example 1]
14,106 to 108 °C,OC[C@@H](O)Cc1nccn1CCCCc1ccc(OCc2coc(/C=C/c3ccc(F)cc3F)n2)cc1 [Example 30]
15,102 to 104 °C,"OCC(O)Cc1nccn1CCCc1cccc(OCc2coc(/C=C/c3ccc(C(F)(F)F)cc3)n2)c1 (stereo not shown) [Example 25, 3-[1-(3-{3-[(2-{(E)-2-[4-(trifluoromethyl)phenyl]ethenyl}-1,3-oxazol-4-yl)methoxy]phenyl}propyl)-1H-imidazol-2-yl]-1,2-propanediol]"
16,157 to 158 °C,"FC(F)(F)c1ccc(/C=C/c2nc(COc3ccc(CCCn4ccnn4)cc3)co2)cc1 [Example 5, 1-(3-{4-[(2-((E)-2-[4-(trifluoromethyl)phenyl]ethenyl)-1,3-oxazol-4-yl)methoxy]phenyl}propyl)-1H-1,2,3-triazole]"
17,142 to 143 °C,"OCC(O)Cc1nccn1CCCCc1ccc(OCc2coc(/C=C/c3ccc(C(F)(F)F)cc3)n2)cc1 (stereo not shown) [Example 24, 3-[1-(4-(4-[(2-{(E)-2-[4-(trifluoromethyl)phenyl]ethenyl}-1,3-oxazol-4-yl)methoxy]phenyl}butyl)-1H-imidazol-2-yl]-1,2-propanediol]"
18,127 to 128 °C,"OCCc1nccn1CCCCc1ccc(OCc2coc(/C=C/c3ccc(Cl)cc3)n2)cc1 [Example 15, 2-[1-[4-[4-[[2-[(E)-2-(4-chlorophenyl)ethenyl]-1,3-oxazol-4-yl]methoxy]phenyl]butyl]-1H-imidazol-2-yl]-1-ethanol]"
19,102 to 104 °C,"Cc1cccc(/C=C/c2nc(COc3ccc(CCCCn4ccnc4CC(O)CO)cc3)co2)c1 (stereo not shown) [Example 22, 3-(1-{4-[4-({2-[(E)-2-(3-methylphenyl)ethenyl]-1,3-oxazol-4-yl}methoxy)phenyl]butyl}-1H-imidazol-2-yl)-1,2-propanediol]"
20,114 to 116 °C,"OCC(O)Cc1nccn1CCCCc1ccc(OCc2coc(/C=C/c3ccc(F)cc3)n2)cc1 (stereo not shown) [Example 23, 3-(1-{4-[4-({2-[(E)-2-(4-fluorophenyl)ethenyl]-1,3-oxazol-4-yl}methoxy)phenyl]butyl}-1H-imidazol-2-yl)-1,2-propanediol]"
21,91 to 93 °C,"Cc1ccccc1/C=C/c1nc(COc2ccc(CCCCn3ccnc3CCO)cc2)co1 [Example 12, 2-[1-[4-[4-[[2-[(E)-2-(2-methylphenyl)ethenyl]-1,3-oxazol-4-yl]methoxy]phenyl]butyl]-1H-imidazol-2-yl]-1-ethanol]"
22,126 to 128 °C,"OCC(O)Cc1nccn1CCCCc1ccc(OCc2coc(/C=C/c3ccc(F)cc3F)n2)cc1 (stereo not shown) [Example 26, 3-(1-{4-[4-({2-[(E)-2-(2,4-difluorophenyl)ethenyl]-1,3-oxazol-4-yl]methoxy)phenyl]butyl}-1H-imidazol-2-yl)-1,2-propanediol]"
23,115 to 116 °C,"FC(F)(F)c1ccc(/C=C/c2nc(COc3cccc(CCCn4ccnn4)c3)co2)cc1 [Example 6, 1-(3-{3-[(2-((E)-2-[4-(trifluoromethyl)phenyl]ethenyl}-1,3-oxazol-4-yl)methoxy]phenyl}propyl)-1H-1,2,3-triazole]"
24,105 to 106 °C,"Fc1ccc(/C=C/c2nc(COc3cccc(CCCn4ccnn4)c3)co2)cc1 [Example 3, 1-{3-[3-({2-[(E)-2-(4-fluorophenyl)ethenyl]-1,3-oxazol-4-yl}methoxy)phenyl]propyl}-1H-1,2,3-triazole]"
25,109 to 111 °C,"Cc1cccc(/C=C/c2nc(COc3ccc(CCCCn4ccnc4CCO)cc3)co2)c1 [Example 11, 2-[1-[4-[4-[[2-[(E)-2-(3-methylphenyl)ethenyl]-1,3-oxazol-4-yl]methoxy]phenyl]butyl]-1H-imidazol-2-yl]-1-ethanol]"
